Results reported in patent US11254671B2, “Chemical compounds” (GLAXOSMITHKLINE INTELLECTUAL PROPERTY DEVELOPMENT LIMITED, priority 2017, dated 2022).
“And” between values parts separate entries of the source, which are not always exact repeats. Identical values can stand only once.

Columns and labels:
mTOR = target: T1, mTOR (Homo sapiens, UniProt P42345); assay: mTOR kinobeads assay (competition-binding assay); conditions: HuT-78 cell extract, endogenously expressed mTOR, bead-immobilized capturing ligand; mean of multiple experiments; read-out: mean pIC50, affinity for mTOR (converted)
T1 construct: capturing of endogenously expressed target proteins from cell extracts by a bead-immobilized capturing ligand; endogenous in cells; host or cells: HuT-78 cells (ECACC 88041901), cell lysate
Method: The affinity of test compounds for mTOR was determined in the mTOR kinobeads assay. This is a competition-binding assay based on the capturing of endogenously expressed target proteins from cell extracts by a bead-immobilized capturing ligand in presence of the test compound.
HuT-78 cells (European Collection of Authenticated Cell Cultures, 88041901) were cultured according to vendor's instructions. Frozen cell pellets were homogenized in 3× pellet volumes lysis buffer (50 mM Tris-HCl, 0.4% (v/v) Igepal-CA630, 5% glycerol, 150 mM NaCl, 1.5 mMMgCl2, 25 mM NaF, 1 mM sodium vanadate, 1 mM DTT, pH 7.5, supplemented with EDTA-free protease inhibitor tablet (Roche)). The sample was dispersed using a Dounce homogenizer, kept rotating for 30 min at 4° C., and centrifuged for 10 min at 20 000 g at 4° C. The supernatant was centrifuged again for 1 h at 145 000 g. The protein concentration was determined by Bradford assay (BioRad), aliquots were snap frozen in liquid nitrogen and stored at −80° C.
The capturing matrices were generated by derivatizing N-hydroxysuccinimide (NHS) activated Sepharose 4 beads (GE Healthcare) with the functionalized ligands Compound A and Compound C at a ligand density of 5 mM. Remaining NHS-groups were blocked with ethanolamine.
For the mTOR kinobeads assay the matrices were combined in a 1:1 ratio and equilibrated in DP buffer (50 mM Tris-HCl (pH 7.5), 0.4% (v/v) Igepal-CA630, 5% (v/v) glycerol, 150 mM NaCl, 1.5 mM MgCl2, 25 mM NaF, 1 mM Na3VO4, 1 mM dithiothreitol). All steps of the mTOR kinobeads assay were performed at 4° C. or on ice. The cell lysate was diluted with DP buffer to a final concentration of 5 mg/ml and a final detergent concentration of 0.4% (v/v) Igepal-CA630. For the assay 250 μg cell lysate and 2.5 μl capturing matrix per well (final assay volume: 75 μl) were incubated in the presence of test compounds in a 384-well filter plate (MultiScreenHTS HV Filter Plate, 0.45 μm, MZHVNOW50, Merck Millipore). Each plate contained 16 positive (100 μM Compound B) and 16 negative (2% v/v DMSO) control wells. Compounds were tested in a concentration-response applying 1:3 or 1:4 dilution steps for in total 11 data points. DMSO concentration was 2% (v/v). After 2 h incubation on an overhead shaker (Roto-Shake Genie, Scientific Industries Inc.) at 4° C. the non-bound fraction was removed by washing the beads with DP buffer. Proteins retained on the beads were eluted in SDS sample buffer (200 mM Tris (pH 7.4), 250 mM Trizma Base, 4% (w/v) SDS, 20% (v/v) glycerol, 0.01% (w/v) bromophenol blue, 50 mM dithiothreitol) into a collection plate (384 well polypropylene microplate, V-shape, Greiner, 781 280). Eluates were spotted on nitrocellulose membranes (400 nl per spot) using an automated pin-tool liquid transfer (Biomek FX, Beckman). After drying, the membranes were rehydrated in 20% (v/v) ethanol and blocked by incubation with Odyssey blocking buffer (LICOR, 927-40000) for 1 h at room temperature. Blocked membranes were incubated overnight at 25° C. with Odyssey blocking buffer supplemented with a specific anti-mTOR antibody (Cell Signaling, 2972; 1:500) and 0.4% TWEEN-20. Then the membranes were washed in PBST buffer and incubated for 60 minutes at room temperature with the detection antibody (IRDye™ labelled antibody from LI-COR) diluted in Odyssey blocking buffer (LICOR 927-40000) containing 0.2% TWEEN-20. Then the membranes were washed with PBST and finally rinsed twice with PBS buffer to remove residual Tween-20. The membranes were then scanned with the Odyssey® Infrared Imaging System (LI-COR Biosciences). Fluorescence signals were recorded and analyzed according to the instructions of the manufacturer. Concentration response curves were computed with the software Activity Base. All data were normalized to the mean of 16 high (negative control) and 16 low (positive control) control wells on each plate. […]

[1] = test system: phosphorylated Akt at serine 473 (pAKTs473) in primary human lung fibroblasts; assay: Highthroughput phosphorylated Akt (Ser473) in vitro immunoassay (MSD); type: cell-based; conditions: Fibroblast, 1 h compound, PDGF-BB 10 ng/ml for 10 min, mean of multiple experiments, read-out: mean pIC50, inhibition of pAkt (Ser473) (converted)
Text: Highthroughput Phosphorylated Akt (Ser473) In Vitro Immunoassay
Immunoassay to measure effect of test compounds on phosphorylated Akt at serine 473 (pAKTs473) in primary human lung fibroblasts (Lonza Group Ltd, Basel, Switzerland, Catalogue No. CC-2512) using the MesoScale Discovery (MSD) platform to quantify levels of total Akt and pAKTser473.
Human lung fibroblasts were routinely maintained in fibroblast basal medium supplemented with 2% foetal bovine serum (FBS), 0.1% human fibroblast growth factor (FGF)-B, 0.1% insulin, 0.1% GA-100 (Lonza Group Ltd, Basel, Switzerland, Catalogue No. CC-3132) at 37° C. in 5% CO2 according to the manufacturer's protocol.
For the assay, cells were harvested using Trypsin/EDTA, (Lonza Group Ltd, Basel, Switzerland, Catalogue No. CC-5012), at working concentration of 0.025%, resuspended to give 3×10^5 cells/ml and 50 ul/well seeded into 384-well plates (Greiner Group, Kremsmunster, Austria, Catalogue No. 781091) in media containing 0.4% FBS and incubated o/n at 37° C. in 5% CO2.
Test compounds were dissolved in 100% DMSO to give 10 mM stock solutions and serially diluted to generate an 11-point concentration response curve. Compound were further diluted by […] into 384-well V-bottom polypropylene plates (Greiner Group, Kremsmunster, Austria, Catalogue No. 781280) with media containing 0.4% FBS to give 50 μM top compound concentration in 0.5% DMSO.
Compounds were transferred to 384-well plates contacting cells (0.1% DMSO final) and incubated for 1 h at 37° C. in 5% CO2, prior to stimulation with platelet-derived growth factor (PDGF)-BB (R&D Systems, Catalogue No. 220-BB) at 10 ng/ml (final) for 10 min at RT. Cell assay plates were incubated on ice and treated with lysis buffer (Cell Signalling Technology, Catalogue No. 9806) containing protease and phosphatase inhibitors (Thermo Scientific, Catalogue No. 78444) followed by shaking for 30 min at 4° C.
MSD plates (MSD, MA6000 384-well GAR plate, Catalogue No. L21RA-2) were blocked with blocking buffer containing TBS (MSD, Cat. No. R61TX-1) with 0.5% bovine serum albumin (BSA) (Sigma Aldrich, Cat. No. A7906), 0.1% tween-20 (Sigma Aldrich, Catalogue No. P2287) and coated with rabbit-anti-human pAkt (s473) ab (Cell Signalling Technology, Catalogue No. CST #4060) at RT with shaking, followed by washing (×3) with 1×TBS wash reagent containing 0.1% Tween-20. Cell lysates (30 ul) were added and MSD plates centrifuged at 1000 rpm at 4° C. o/n.
Plates were washed with 1×TBS wash buffer (×3), prior to addition of mouse-anti-human-total Akt ab (1 mg/ml) (Upstate (Milipore), Catalogue No. 05-591) in blocking buffer and shaken at RT for 1 h. After washing with 1×TBS wash buffer (×3), plates were incubated with goat-anti-mouse SULFO-TAG detection ab (MSD, Catalogue No. R32AC-1) (1:500 in blocking buffer) for 1 h at RT. Plates were washed with 1×TBS (×3) and read buffer (2×) (MSD, Catalogue No. R92TC-1) added before detecting electrochemiluminescence (MSD Sector Imager 6000).
Data analysis was performed by determining % inhibition values for test compounds relative to the minimum (+PDGF-BB stimulation) and maximum responses (no PDGF-BB stimulation) with non-linear regression analysis to determine IC50 values for test compounds.

Structure (SMILES)	IC50 (mTOR)	IC50 [1] [nM]
CC[C@H]1COCCN1c1cc(C(C)(C)S(C)(=O)=O)cc(-c2ccc3[nH]c(CNC)cc3n2)n1 [Example 1, [(5-{6-[(3S)-3-ethylmorpholin-4-yl]-4-(2-methanesulfonylpropan-2-yl)pyridin-2-yl}-1H-pyrrolo[3,2-b]pyridin-2-yl)methyl](methyl)amine]	2.51 to 31.6 nM and 15.8 nM and 2.51 to 316 nM	
CC[C@H]1COCCN1c1cc(CS(C)(=O)=O)cc(-c2ccc3[nH]c(CN(C)CC)cc3n2)n1 [Example 14, (S)—N-((5-(6-(3-ethylmorpholino)-4-((methylsulfonyl)-methyl)pyridin-2-yl)-1H-pyrrolo[3,2-b]pyridin-2-yl)-methyl)-N-methylethanamine]	2.51 to 316 nM	3.16 to 316
CC[C@H]1COCCN1c1cc(C2(S(C)(=O)=O)CCOCC2)cc(-c2ccc3[nH]c(CNC)cc3n2)n1 [Example 15, (S)-1-(5-(6-(3-ethylmorpholino)-4-(4-(methylsulfonyl)tetrahydro-2H-pyran-4-yl)pyridin-2-yl)-1H-pyrrolo[3,2-b]pyridin-2-yl)-N-methylmethanamine]	2.51 to 31.6 nM and 7.94 nM and 2.51 to 316 nM	2.51 to 10
CC[C@H]1COCCN1c1cc(C2(S(C)(=O)=O)CCOCC2)cc(-c2ccc3[nH]c(CN(C)CC)cc3n2)n1 [Example 16, (S)—N-((5-(6-(3-ethylmorpholino)-4-(4-(methylsulfonyl)tetrahydro-2H-pyran-4-yl)pyridin-2-yl)-1H-pyrrolo[3,2-b]pyridin-2-yl)methyl)-N-methylethanamine]	2.51 to 316 nM	3.16 to 316
CC[C@H]1COCCN1c1cc(C2(S(C)(=O)=O)CCNCC2)cc(-c2ccc3[nH]c(CNC)cc3n2)n1 [Example 24, [(5-{6-[(3S)-3-ethylmorpholin-4-yl]-4-(4-methanesulfonylpiperidin-4-yl)pyridin-2-yl}-1H-pyrrolo[3,2-b]pyridin-2-yl)methyl](methyl)amine]	2.51 to 31.6 nM and 2.51 to 316 nM	3.16 to 316
CNCc1cc2nc(-c3cc(CS(C)(=O)=O)cc(N4CCOC[C@H]4C)n3)ccc2[nH]1 [Example 26, ({5-[4-(methanesulfonylmethyl)-6-[(3R)-3-methylmorpholin-4-yl]pyridin-2-yl]-1H-pyrrolo[3,2-b]pyridin-2-yl}methyl)(methyl)amine]	2.51 to 316 nM	3.16 to 316
CC[C@H]1COCCN1c1cc(C2(S(N)(=O)=O)CCOCC2)cc(-c2ccc3[nH]c(CNC)cc3n2)n1 [Example 27, 4-{2-[(3S)-3-ethylmorpholin-4-yl]-6-{2-[(methylamino)methyl]-1H-pyrrolo[3,2-b]pyridin-5-yl}pyridin-4-yl}oxane-4-sulfonamide]		3.16 to 316
CC[C@H]1COCCN1c1cc(CS(N)(=O)=O)cc(-c2ccc3[nH]c(CNC)cc3n2)n1 [Example 29, {2-[(3S)-3-ethylmorpholin-4-yl]-6-{2-[(methylamino)methyl]-1H-pyrrolo[3,2-b]pyridin-5-yl}pyridin-4-yl}methanesulfonamide]	2.51 to 31.6 nM and 2.51 to 316 nM	3.16 to 316
CC[C@H]1COCCN1c1cc(C2(S(C)(=O)=O)CCNCC2)cc(-c2ccc3[nH]c(CO)cc3n2)n1 [Example 36]	2.51 to 31.6 nM and 2.51 to 316 nM	3.16 to 316
CNCc1cc2nc(-c3cc(C4(S(C)(=O)=O)CCOCC4)cc(N4CC5CCC(C4)O5)n3)ccc2[nH]1 [Example 37, ({5-[4-(4-methanesulfonyloxan-4-yl)-6-{8-oxa-3-azabicyclo[3.2.1]octan-3-yl}pyridin-2-yl]-1H-pyrrolo[3,2-b]pyridin-2-yl}methyl)(methyl)amine]	2.51 to 31.6 nM and 2.51 to 316 nM	3.16 to 316
CC[C@H]1COCCN1c1cc(C2(S(C)(=O)=O)CCN(C(C)=O)CC2)cc(-c2ccc3[nH]c(CNC)cc3n2)n1 [Example 39, 1-(4-{2-[(3S)-3-ethylmorpholin-4-yl]-6-{2-[(methylamino)methyl]-1H-pyrrolo[3,2-b]pyridin-5-yl}pyridin-4-yl}-4-methanesulfonylpiperidin-1-yl)ethan-1-one]	2.51 to 316 nM	
CNCc1cc2nc(-c3cc(CS(C)(=O)=O)cc(N4CCCOCC4)n3)ccc2[nH]1 [Example 45, ({5-[4-(methanesulfonylmethyl)-6-(1,4-oxazepan-4-yl)pyridin-2-yl]-1H-pyrrolo[3,2-b]pyridin-2-yl}methyl)(methyl)amine]	2.51 to 316 nM	
CNCc1cc2nc(-c3cc(CS(C)(=O)=O)cc(N4CCOCC4)n3)ccc2[nH]1 [Example 46, ({5-[4-(methanesulfonylmethyl)-6-(morpholin-4-yl)pyridin-2-yl]-1H-pyrrolo[3,2-b]pyridin-2-yl}methyl)(methyl)amine]	2.51 to 316 nM	
